This note sets out measurements from PubChem BioAssay AID686920 (Broad Institute, 2013).

Active and inactive are the calls of the source.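 The calls were made as follows: active = fitted curve reaching 35% inhibition at a dose no higher than twice the top valid tested dose; inconclusive = flat fit with 30 to 70% inhibition, or a poor fit; inactive = the rest, including activity in the opposite direction.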

The first assay in a line: NR0B1 reporter signal reduction in A673 cells – cell-based, luciferase luminescence, cherry-pick, EWS/Fli inhibitor project, dose response (AID 686920). Conditions: A673 NR0B1-luciferase reporter, viability-normalised luminescence; at 21 µM (top of the series).
For the compound `COc1cc(C(c2c(C)[nH][nH]c2=O)c2c(C)[nH][nH]c2=O)ccc1OC(C)C`, the activity change, negative = inhibition is 28.1% (inactive).

The same assay, now with this note: A673 NR0B1-luciferase reporter, viability-normalised luminescence; at 68 µM (top of the series).
Consider `COc1cc(/C=N\Nc2nc(-c3ccc(C)cc3)c(NC(C)=O)s2)ccc1O`, for which the activity change, negative = inhibition was 80.8% (inactive).

Consider `COc1ccc(C/C(N)=N/OC(C)=O)cc1OC`, for which the activity change, negative = inhibition is 13.8% (inactive).

As to `C=CCOC(=O)c1sc(NC(=O)c2ccc(OC)cc2)nc1C`, the activity change, negative = inhibition was 39% (inactive).

As to `COc1ccc(-c2cn(-c3ccc(OC)cc3)c3[n+]2-c2ccccc2CC3)cc1`, the activity change, negative = inhibition was -21.1% (inactive).

As to `COc1cc(/C=N/NC(=O)c2csc3c2CCCC3)cc(OC)c1O`, the activity change, negative = inhibition was 16.3% (inactive). Still for that read-out and setting: the same measure for `COC(=O)C[C@H]1CC[C@H]2[C@@H](COc3ccc(NC(=O)Nc4cccc(Cl)c4)cc3C(=O)N2C)O1`: 18.6% (inactive); for `O=C(CNC(=O)Cc1ccccc1)N=Nc1c(O)n(Cc2ccc3c(c2)OCO3)c2ccccc12`: -28.3% (inactive). Turning to `CC(=O)c1ccc(N(C(=O)Cn2nnc3ccccc32)C(C(=O)NCc2ccccc2)c2ccccn2)cc1` (stereo not drawn), the activity change, negative = inhibition was 102% (inactive). Still for that read-out and setting: as for `C/C=C/c1ccc([C@H]2[C@@H](CO)N3C(=O)CN(S(=O)(=O)c4cccc(F)c4)C[C@@H]23)cc1`, the figure is -7.12% (inactive); as for `COC(=O)C[C@@H]1CC[C@@H]2[C@@H](COc3ccc(NC(=O)Cc4cccs4)cc3C(=O)N2C)O1`, -27.4% (inactive); as for `COC(=O)[C@H]1[C@H](CO)[C@H]2Cn3c(ccc(-c4ccccc4F)c3=O)[C@@H]1N2CC1CCCC1`, -18% (inactive).

Turning to `CCCCOc1ccc(NC(=O)C(=O)NCCCn2ccnc2)cc1`, the activity change, negative = inhibition was -0.492% (inactive).
